Data on four compounds can be found in patent US11021687B2, “Production of differentiated enteroendocrine cells and insulin producing cells” (Massachusetts Institute of Technology, priority 2016, dated 2021).

The test system of assay [1] is gastrointestinal stem cells. The assay can be described thus: Insulin / Nkx6.1 mRNA expression (qPCR), 3-stage conversion to insulin producing cells. The assay is classed as cell-based, mouse. The conditions noted are these: dose response. An excerpt: “mRNA Insulin Expression Assay” refers to an assay used to determine the relative insulin mRNA expression level of a cell population. For example, the assay can determine the insulin mRNA level expressed in a cell population treated to increase the expression of insulin in the cells, as compared to an untreated population of cells. In an exemplary mRNA Insulin Expression Assay, the cells were collected and the RNA is extracted from the cells using an RNA extraction kit (such as RNeasy Mini kit, Qiagen). The insulin expression level is then assessed by Quantitative real-time PCR using a one-step qPCR kit (such as QuantiTech Probe PCR kit, Qiagen) and Ins1 or Ins2 primers and probes (such as the commercially available TaqMan probe for mouse Ins1 and Ins2, Life Technologies). The relative insulin mRNA expression can be determined relative to a baseline or other marker, such as Hprt mRNA expression level or other baseline marker.
(§1) Organoids or differentiated cells were harvested and RNA was extracted using RNeasy Micro Kit (Qiagen) according to the manufacturer's instruction. Quantitative real-time PCR was performed with QuantiTect Probe PCR kit (Qiagen) using commercially available primers and TaqMan probes (Life Technologies).
Based on the protocol to convert gastrointestinal stem cells into insulin producing cells, a 3-stage process was developed, specifically, Day 0-1 as Stage 1, Day 1-3 as Stage 2, Day 3-5 as Stage 3. After Stage 3, the cells turn on significant level of Insulin expression as indicated by Ins-EGFP expression and qPCR for Insulin mRNA expression. Optionally, the cells can be further cultured for 1-2 weeks, as Stage 4. For each stage, a set of specific combination of small molecules (and/or growth factors) were added. The objective was to optimize the reprogramming protocol to increase insulin expression, specifically Insulin mRNA expression for each stage, by screening and testing new small molecules (or growth factors).
(In general: In qPCR the cycle at which signal appears reflects the starting amount.)

The subject of assay [2] is intestinal stem cells. Put plainly: ChgA immunostaining of EEC differentiation from intestinal stem cells. In kind it is cell-based, mouse. The conditions noted are these: organoid culture (ENR) with Notch inhibitor DAPT (ENRD). On the procedure: “ChgA Immunostaining Assay” as used herein is an assay used to determine the fraction of cells in a cell population that express ChgA by an immunostaining method. In an example of a ChgA immunostaining assay, a cell culture medium in which a cell population has been treated is removed, and the sample is washed with PBS. Organoids or cell colonies cultured in Matrigel are fixed directly by adding 4% PFA and incubating for 20 mins at room temperature. The Matrigel is then mechanically disrupted, and the cells are transferred to BSA-coated Eppendorf tubes. Samples are washed with PBS, permeabilized with 0.25% Triton X-100 for 30 minutes, and stained with primary antibody against Chromogranin A (e.g. anti-chromogranin A, sc-13090, Santa Cruz) and appropriate secondary antibodies (e.g. Alexa Fluor conjugated secondary antibodies, such as Alexa Fluor 594 conjugated Donkey anti-Rabbit antibody, A-21207; Life Technologies). Images are acquired by confocal microscopy.
Differentiated cell colonies were collected by gently pipetting into a 1.5 ml protein Lobind Eppendorf tube. Cell culture medium was removed, and samples were washed with PBS. Organoids or cell colonies cultured in Matrigel were fixed by directly adding 4% PFA and incubating for 10-30 min at room temperature. Matrigel was then mechanically disrupted, and cells were transferred into BSA-coated Eppendorf tubes. […]

Assay [3] has as its system differentiated cell colonies. The conditions noted are these: continuing culture of Islet-like Insulin expression cell colonies.
The subject of assay [4] is intestinal stem cells. The assay can be described thus: mRNA expression (qPCR) of ChgA and other lineage markers in differentiated intestinal stem cells. In kind it is cell-based, mouse. Conditions: for expression of Goblet cell marker (Muc2) and Paneth cell marker (Lyz1): 24-well validation; for expression of enteroendocrine cell marker ChgA: multiple conditions (FIG. 6).
Text: “mRNA ChgA Expression Assay” refers to an assay used to determine the relative ChgA mRNA expression level in a cell population. For example, the assay can determine ChgA mRNA expression level of a differentiated cell population following treatment with agents being tested, as compared to an untested population of post-natal stem cells. In an example of an mRNA ChgA Expression Assay, the cells were collected and the RNA is extracted from the cells using an RNA extraction kit (such as RNeasy Mini kit, Qiagen). The ChgA expression level is then assessed by Quantitative real-time PCR using a one-step qPCR kit (such as QuantiTech Probe PCR kit, Qiagen) and ChgA primers and probes (such as commercially available Taqman probe for mouse ChgA, Life Technologies).
as §1
Cells were then cultured with EGF, Noggin, and DAPT (END), as well as small molecules. After 2-3 days of differentiation, the cells lysed and ChgA expression was measured by qRT-PCR.
Small molecules were further validated using a 24-well plate culture and the differentiation system. […] The expression of markers of secretory lineage cells including goblet cells (Muc2), enteroendocrine cells (ChgA), and Paneth cells (Lyz1) were measured.

Assay [5] concerns intestinal stem cells. Put plainly: Ngn3 mRNA expression during EEC differentiation. The assay is classed as cell-based, mouse. As for the experimental part:
“Ngn3 Assay” as used herein is an assay used to determine the extent of expression of Ngn3 in cells, such as cells subjected to a differentiation protocol. In an exemplary Ngn3 Assay, RNA is isolated from cells that have been cultured according to a differentiation protocol, and quantitative real-time PCR is performed using commercially available primers and probes (such as Taqman probes) to determine an extent of Ngn3 expression in the cells.
as §1
There has been prior speculation that Ngn3 positive secretory progenitors differentiate to EECs (Genes Dev. 2002).

[6] abbreviates: 2 days, added after removal of R-spondin1.
Setting [7] is: 5 days 2-step protocol, Tubastatin A in step 1, Tranylcypromine in both steps.
The mark [8] stands for this setting: ENRD conditions, 2 days of differentiation.

As to `C[C@H](NC(=O)Cc1cc(F)cc(F)c1)C(=O)N[C@H](C(=O)OC(C)(C)C)c1ccccc1` [DAPT, N—[N-(3,5-Difluorophenacetyl)-L-alanyl]-S-phenylglycine t-butyl ester], the “concentration of highest activity / optimal concentration in promoting Insulin expression” value in assay [1] stood at 5 µM. In addition, the “stem cells turned into EECs” value in assay [2] was 5%-10%. Also, the effect of removal result in assay [3] is “could be removed without much influence”.
In the case of `COc1cc2ncnc(Nc3ccc(F)c(Cl)c3)c2cc1OCCCN1CCOCC1` [Gefitinib], the “expression of Goblet cell marker (Muc2) and Paneth cell marker (Lyz1)” value in assay [4] (END conditions) is recorded as “not similarly increased”. For the same compound, the ChgA expression entry in assay [4] (96-well screening, END conditions, 2-3 days) is given as “increased”. Besides, the “expression of enteroendocrine cell marker ChgA” value in assay [4] is on record as “specifically increased”. The Ngn3 expression result in assay [5] (setting [6]) is given as “further decreased”.
For the compound `O=C(NOC[C@H](O)CO)c1ccc(F)c(F)c1Nc1ccc(I)cc1F` [PD0325901, N-[(2R)-2,3-Dihydroxypropoxyl]-3,4-difluoro-2-[(2-fluoro-4-iodophenyl)amino]-benzamide], the “expression of Goblet cell marker (Muc2) and Paneth cell marker (Lyz1)” value in assay [4] (END conditions) is given as “not similarly increased”. Also, the “expression of enteroendocrine cell marker ChgA” value in assay [4] is “specifically increased”. Besides, in assay [5] (setting [6]), the Ngn3 expression entry is “further decreased”. The effect of removal result in assay [3] is listed as “could be removed without much influence”.
In the case of `CN1CCc2c(c3ccccc3n2Cc2ccc(C(=O)NO)cc2)C1.Cl` [Tubastatin A, N-Hydroxy-4-(2-methyl-1,2,3,4-tetrahydro-pyrido[4,3-b]indol-5-ylmethyl)benzamide hydrochloride], in assay [4] (setting [7]), the “EEC marker ChgA expression” value was “increased”; the “expression of markers for K cell (Gip), L cell (Gcg), and I cell (Cck)” value is “also increased”. Moreover, the ChgA expression entry in assay [4] (setting [8]) was “decreased”. Also, the Ngn3 expression result in assay [5] (setting [8]) is listed as “increase”.
